This note sets out measurements from PubChem BioAssay (NCI).

Among the test systems are U251 CNS; COLO 205 colon; CCRF-CEM leukemia; IGROV1 ovarian; HOP-92 NSCLC; RPMI-8226 leukemia; EKVX NSCLC; A498 renal; LOX IMVI melanoma.
What all share (experiment): inhibition of tumour cell growth, NCI panel, 48 h

“And” between values parts separate entries of the source, which are not always exact repeats. Identical values can stand only once.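 Where inhibition never reached the appropriate level, the endpoint shown equals the highest concentration tested. Otherwise, values were interpolated linearly from a five-concentration, 48-hour dose response in 96-well plates. GI50: concentration for 50% inhibition of growth. At the TGI there is no net growth.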 Where only a bound is given, the exact number is not on record here.

As to `CN=C1SC(=Nc2ccc(N(C)C)cc2)N1C`, the TGI with U251 CNS was more than 100 µM; with COLO 205 colon it was more than 100 µM; with CCRF-CEM leukemia, more than 100 µM; in the assay with IGROV1 ovarian, more than 100 µM; in the assay on HOP-92 NSCLC it was 53.5 µM; in the assay on RPMI-8226 leukemia, more than 100 µM. The TGI is 72.7 µM with EKVX NSCLC, 91.9 µM with A498 renal and more than 100 µM with LOX IMVI melanoma.
On to `CC1(C)C2CCC3(C2)CS(=O)(=O)N2OC231` (centres undefined), for which the TGI in the assay with U251 CNS is more than 100 µM; with COLO 205 colon, 32.9 µM; in the assay on CCRF-CEM leukemia, more than 100 µM; with IGROV1 ovarian, 43.4 µM; with HOP-92 NSCLC, 25.2 µM; with RPMI-8226 leukemia, more than 100 µM. Also, the TGI worked out at 30.3 µM in the assay with EKVX NSCLC, 44.5 µM in the assay with A498 renal and 31.1 µM with LOX IMVI melanoma.
For the molecule `O=[N+]([O-])c1nccn1COCCBr`, the TGI with U251 CNS, with CCRF-CEM leukemia, with HOP-92 NSCLC, in the assay on RPMI-8226 leukemia, with EKVX NSCLC and with LOX IMVI melanoma was more than 100 µM throughout.
`CN[C@@H]1C[C@H]2O[C@@](C)([C@@H]1OC)n1c3ccccc3c3c4c(c5c6ccccc6n2c5c31)C(=O)N[C@@H]4O`: the TGI is 0.3 µM and 0.333 µM in the assay with U251 CNS; 0.691 µM in the assay on COLO 205 colon; 1.39 µM with CCRF-CEM leukemia; 0.0617 µM and 0.341 µM in the assay on IGROV1 ovarian; 0.232 µM and 2.12 µM with EKVX NSCLC; 0.0232 µM and 0.0257 µM in the assay with A498 renal. Further, the TGI in the assay with LOX IMVI melanoma amounted to 0.406 µM. Moreover, the GI50 with IGROV1 ovarian was 12.9 nM and 46.1 nM; in the assay on HOP-92 NSCLC it was less than 0.0205 µM; in the assay on RPMI-8226 leukemia, 0.0419 µM; in the assay with A498 renal, 5.3 nM.
On to `O=c1ccc(=O)c2c(=O)c3ccccc3c(=O)c1=2`, for which the TGI in the assay on U251 CNS, with COLO 205 colon, in the assay on CCRF-CEM leukemia, with IGROV1 ovarian, in the assay on HOP-92 NSCLC and in the assay with RPMI-8226 leukemia was more than 100 µM in each case. Besides, the TGI with EKVX NSCLC, in the assay on A498 renal and in the assay with LOX IMVI melanoma was more than 100 µM in each case.
Turning to `O=C1C2Cc3ccccc3CN2C(=O)N1CCN1CCCC1` (centres undefined), the TGI in the assay with U251 CNS, with COLO 205 colon, in the assay on CCRF-CEM leukemia, in the assay with IGROV1 ovarian, with RPMI-8226 leukemia and in the assay with A498 renal was more than 100 µM throughout. Moreover, the TGI in the assay with LOX IMVI melanoma was more than 100 µM.
Consider `O=[N+]([O-])c1ccc2c(c1)[O][Sn]([I])([I])[O]2`, for which the GI50 was more than 100 µM with U251 CNS; 42.3 µM in the assay on CCRF-CEM leukemia; more than 100000 nM in the assay on IGROV1 ovarian; more than 100 µM in the assay on HOP-92 NSCLC; 44.6 µM in the assay with RPMI-8226 leukemia; more than 100 µM in the assay on EKVX NSCLC. The values for the GI50 with A498 renal and in the assay with LOX IMVI melanoma were more than 100000 nM and 89.4 µM, respectively. The TGI with U251 CNS, in the assay on CCRF-CEM leukemia, with IGROV1 ovarian, with HOP-92 NSCLC, in the assay on RPMI-8226 leukemia and in the assay with EKVX NSCLC was more than 100 µM throughout. The TGI with A498 renal and with LOX IMVI melanoma was more than 100 µM each time.
Take `CCOC(=O)[C@H]1Nc2ccc(OC)cc2C2c3ccccc3CC21` (some centres undefined): the TGI with U251 CNS, in the assay with COLO 205 colon, in the assay on IGROV1 ovarian, with RPMI-8226 leukemia, in the assay with A498 renal and in the assay with LOX IMVI melanoma was more than 100 µM in each case.
Turning to `CCN(CC)c1ccc2c(c1)Nc1cc(=C(C#N)C#N)c3ccccc3c1=N2`, the TGI in the assay on U251 CNS, with COLO 205 colon, in the assay with IGROV1 ovarian, in the assay on HOP-92 NSCLC, with RPMI-8226 leukemia and in the assay on EKVX NSCLC was more than 100 µM each time. For the same molecule, the TGI with A498 renal and with LOX IMVI melanoma was more than 100 µM in each case.
In the case of `CN1C(=O)C(Cl)(C(Cl)(Cl)S(=O)(=O)O)C(=O)c2ccccc21` (centres undefined), the TGI with U251 CNS, in the assay with COLO 205 colon, in the assay with CCRF-CEM leukemia, with IGROV1 ovarian, in the assay on HOP-92 NSCLC and in the assay with RPMI-8226 leukemia was more than 100 µM throughout. Moreover, the TGI in the assay on EKVX NSCLC, with A498 renal and in the assay on LOX IMVI melanoma was more than 100 µM throughout.
With `O=c1[nH]c(=O)n(C2OC3COC2C3O)cc1F` (centres undefined), the TGI in the assay on U251 CNS, in the assay on COLO 205 colon, with CCRF-CEM leukemia, with HOP-92 NSCLC, with RPMI-8226 leukemia and with EKVX NSCLC was more than 100 µM in each case. The TGI in the assay on LOX IMVI melanoma is more than 100 µM.
With `Cc1cc2c(=O)c3ccccc3[nH]c2c(C(=O)O)c1C`, the TGI in the assay on U251 CNS, with COLO 205 colon, in the assay with CCRF-CEM leukemia, in the assay with IGROV1 ovarian, in the assay on RPMI-8226 leukemia and in the assay on EKVX NSCLC was more than 100 µM throughout. In the assay with A498 renal, this molecule gave a TGI of more than 100 µM.
For `COc1ccc2c(c1)[n+]([O-])c(/C(C)=N/NC(=O)CC#N)c[n+]2[O-]`, the TGI in the assay with U251 CNS, in the assay with COLO 205 colon, with CCRF-CEM leukemia, with IGROV1 ovarian, with HOP-92 NSCLC and in the assay on RPMI-8226 leukemia was more than 100 µM each time. Also, the TGI in the assay on EKVX NSCLC, with A498 renal and in the assay with LOX IMVI melanoma was more than 100 µM in each case.
For the molecule `COC(=O)C1=C(CS(=O)c2ccccc2[N+](=O)[O-])ON(C)C1c1ccccc1` (centres undefined), the TGI was more than 100 µM with U251 CNS; more than 100 µM in the assay on COLO 205 colon; 39.3 µM in the assay with CCRF-CEM leukemia; more than 100 µM in the assay with IGROV1 ovarian; more than 100 µM with RPMI-8226 leukemia; more than 100 µM in the assay with EKVX NSCLC. Moreover, the TGI was more than 100 µM in the assay with A498 renal and 28.9 µM in the assay on LOX IMVI melanoma.
With `CCOC(=O)C(=O)Nc1c(C(C)C)cccc1C(C)C`, the TGI with U251 CNS, with COLO 205 colon, in the assay with CCRF-CEM leukemia, in the assay on IGROV1 ovarian, in the assay on HOP-92 NSCLC and in the assay on EKVX NSCLC was more than 100 µM in each case. The molecule also returned a TGI in the assay with A498 renal of more than 100 µM.
Take `C1=CC=C2NCCOCCNC3=CC=CC=CC3=NCCOCCN=C2C=C1`: the TGI with U251 CNS, in the assay with COLO 205 colon, in the assay with CCRF-CEM leukemia, in the assay with IGROV1 ovarian, in the assay with RPMI-8226 leukemia and with EKVX NSCLC was more than 100 µM in each case. For the same molecule, the TGI with A498 renal and in the assay with LOX IMVI melanoma was more than 100 µM in each case.
Regarding `CC(=O)O[C@@H]1C2C(=O)OC(=O)C2C2CCC[C@]23O[C@H]13` (some centres undefined), the TGI with U251 CNS, with COLO 205 colon, in the assay on CCRF-CEM leukemia, in the assay on IGROV1 ovarian, with RPMI-8226 leukemia and in the assay with A498 renal was more than 100 µM each time.
As to `Nc1nc(CCC(=O)Nc2cccc(C(F)(F)F)c2)cc(-c2ccc3ccccc3c2)n1`, the TGI with U251 CNS, in the assay with COLO 205 colon, with CCRF-CEM leukemia, in the assay with IGROV1 ovarian, in the assay on HOP-92 NSCLC and with RPMI-8226 leukemia was more than 100 µM each time. Besides, the TGI in the assay with EKVX NSCLC and with A498 renal was more than 100 µM in each case.
As to `Cc1nn(-c2ccccc2)c(-c2ccccc2[N+](=O)[O-])c1CC#N`, the TGI with COLO 205 colon, with CCRF-CEM leukemia, in the assay with IGROV1 ovarian, in the assay with HOP-92 NSCLC, in the assay with RPMI-8226 leukemia and with EKVX NSCLC was more than 100 µM throughout. The TGI with LOX IMVI melanoma is more than 100 µM.
`CC(=O)OC1[C@H]2c3cc4c(cc3CN3CCC(=C[C@@H]1O)C23)OCO4` (some centres undefined): the TGI in the assay on U251 CNS, with COLO 205 colon, in the assay with CCRF-CEM leukemia, in the assay on IGROV1 ovarian, in the assay on RPMI-8226 leukemia and in the assay on EKVX NSCLC was more than 100 µM throughout. The molecule also registered a TGI in the assay with LOX IMVI melanoma of more than 100 µM.
In the case of `CCOc1ccccc1NC(=O)CCc1nc(=S)[nH][nH]1`, the TGI in the assay on U251 CNS, with COLO 205 colon, in the assay with CCRF-CEM leukemia, in the assay on IGROV1 ovarian, in the assay on HOP-92 NSCLC and in the assay on RPMI-8226 leukemia was more than 100 µM throughout. The TGI in the assay with EKVX NSCLC and with LOX IMVI melanoma was more than 100 µM each time.
`S=c1nc(-c2cccnc2)[nH][nH]1`: the TGI in the assay on U251 CNS, in the assay on COLO 205 colon, with CCRF-CEM leukemia, in the assay with HOP-92 NSCLC, in the assay with RPMI-8226 leukemia and in the assay on A498 renal was more than 100 µM in each case. In addition, the TGI in the assay on LOX IMVI melanoma was more than 100 µM.
For `BrC1(Br)C2/C=C\CCCCC21` (centres undefined), the TGI with U251 CNS, in the assay on COLO 205 colon, with CCRF-CEM leukemia, in the assay on IGROV1 ovarian, in the assay on HOP-92 NSCLC and in the assay on EKVX NSCLC was more than 100 µM throughout. For the same molecule, the TGI in the assay on A498 renal and with LOX IMVI melanoma was more than 100 µM in each case.
Turning to `N#CC(NNC(=O)c1ccccc1O)c1cccc(O)c1` (centres undefined), the TGI in the assay with U251 CNS, in the assay on COLO 205 colon, with CCRF-CEM leukemia, with IGROV1 ovarian, with HOP-92 NSCLC and in the assay on RPMI-8226 leukemia was more than 100 µM each time. The molecule also gave a TGI in the assay on LOX IMVI melanoma of more than 100 µM.
